Literature values in patent publication US20230405068A1, “RADIATION-INDUCED FIBROSIS TREATMENT” (Handelsselskabet af 20.10.2020 ApS, priority 2020, published 2023).
Read-outs that look alike come from different tables or passages of the source.

Legend:
[1] = test system: radiation-induced dermatitis; conditions: rats
[2] = test system: radiation-induced dermatitis; conditions: mice; applied topically
[3] = test system: radiation-induced skin fibrosis; conditions: intramuscular injection; humans
[4] = test system: radiation-induced skin fibrosis; conditions: intramuscular injection; pigs

Row | Molecule | mitochondrial lipid peroxidation (radiation-induced injury) | protection from radiation-induced injury (radiation-induced injury) | also measured
1 | CC(=O)N[C@@H](CS)C(=O)O [N-acetylcysteine] |  |  | protection from radiation-induced dermatitis [1]: significantly protects
2 | CC1(C)CC[C@]2(NC(=O)C(C)(F)F)CC[C@]3(C)[C@H](C(=O)C=C4[C@@]5(C)C=C(C#N)C(=O)C(C)(C)[C@@H]5CC[C@]43C)[C@@H]2C1 [RTA 408, omaveloxolone] |  |  | protection from radiation-induced dermatitis [2]: allegedly protecting
3 | NCCCNCCSP(=O)(O)O [amifostine] | limit mitochondrial lipid peroxidation | protect from radiation-induced injury | 
4 | N[C@@H](CCC(=O)N[C@@H](CS)C(=O)NCC(=O)O)C(=O)O [glutathione] | limit mitochondrial lipid peroxidation | protect from radiation-induced injury | 
5 | Sod1 (Cu—Zn) protein: Sod1 (Cu—Zn) protein given by intramuscular injection |  |  | protection from radiation-induced skin fibrosis [3]: protected; protection from radiation-induced skin fibrosis [4]: protected
